Patent publication EP0344995A2, “Method for inhibiting loss of cognitive functions employing a calcium channel blocker alone or in combination with an ace inhibitor” (E.R. SQUIBB & SONS, INC., priority 1988, dated 1989)

Legend:
[1] = test system: Adult male Sprauge-Dawley rats; assay: Extinction of conditioned avoidance response (CAE) in a shuttle box; type: in vivo; settings: 10 mg/kg and 30 mg/kg i.p. on the 2 days prior to testing and 1 hour before it, extinction tested during 14 days vs saline control
Procedure: Adult male Sprauge-Dawley rats (Charles River, Wilmington, MA), age 25 weeks and weighing 350-400 g, are separately housed in stainless steel cages with continuous access to food and water, a 12-hour light-dark cycle, and constant room temperature of 22° to 24 C. All testing took place approximately 6 hours into the dark component of the light-dark cycle and was conducted in a dimly lighted soundproof room using a standard shuttle box device ([…] Valley Electronics #146-04), a plexiglass chamber (50 x 20 x 20 cm) divided by a center barrier 7 cm in height. The conditioned stimulus consisted of a 10-second tone provided by a Sonlert mounted in the midpoint of the ceiling of the chamber. Floor current of 0.8 mA was delivered by a constant current shocker-scrambler ([…] Valley Electronics #133-33). The day before the initiation of training each animal was allowed to explore the experimental chamber for 10 minutes without any tone or shock. Training was conducted for 15 days following the day of experimental chamber exploration. Each animal received 20 trials per day on a 30-second variable interval schedule. No drug treatment was administered during the training period. Shock could be avoided by shuttling from one side of the center barrier to the other during the 10-second tone period. […] Animals which consistently remained on the center barrier were removed from the study. Automatic counters recorded the number of avoidance responses, escapes, and intertrial crossings, while a running time meter recorded the total shock duration for each animal. Animals not meeting the admittance criterion of correct avoidance rsponding on at least 85% of the trials for 4 out of the last 5 days of training were removed from the study. A total of 99 rats reaching the admittance criterion were tested for extinction of conditioned avoidance response (CAE) during 14 days. […] All solutions were prepared fresh and administered i.p. ([…]) on the 2 days prior to testing and then 1 hour before it. […] The tone was simply discontinued and the testing proceeded. Two-way analysis of variance of the CAE data yielded an overall significant difference in the rate of shuttle extinction between treatment groups.

| SMILES | protective effects on memory of previously learned tasks (rate of shuttle extinction) [1] | other results |
| --- | --- | --- |
| C[C@H](CS)C(=O)N1CCC[C@H]1C(=O)O [captopril] | possess protective effects on memory of previously learned tasks |  |
| COC(=O)C1=CCCN(C)C1 [arecoline] |  | basal learning (speed of habituation) (Male albino (BKW) mice; mouse, in vivo): the time course of the basic 'learning' or habituation was unaffected |
| C[C@@H](CS)C(=O)N1CCC[C@H]1C(=O)O [epicaptopril] | do not have protective effects against loss of memory of previously learned tasks |  |
| CN1[C@@H]2C[C@@H](OC(=O)[C@H](CO)c3ccccc3)C[C@H]1[C@@H]1O[C@@H]12 [scopolamine] |  | influence on habituation of the challenge agent, daily challenge (Male albino (BKW) mice; mouse, in vivo): The habituation was impaired throughout the time of scopolamine challenge; autonomic disturbance (Male albino (BKW) mice; mouse, in vivo, ip, 0.25 mg/kg): did not cause autonomic disturbance; effect on vision (Male albino (BKW) mice; mouse, in vivo, ip, 0.25 mg/kg): lack of effect on vision |
| COc1ccc([C@@H]2Sc3ccccc3N(CCN(C)C)C(=O)[C@@H]2OC(C)=O)cc1 [diltiazem] | possess protective effects on memory of previously learned tasks | antagonism of impairment in habituation caused by acute challenge with scopolamine (Male albino (BKW) mice; mice, scopolamine 0.25 mg/kg i.p. acute challenge (days 6 and 10 for diltiazem), arecoline 50 mg/kg/day i.p. infusion, hydergine 0.1 mg/kg p.o. daily, listed as Diltiazem): found to antagonize the impairment in habituation performance |
| C[C@](N)(Cc1ccc(O)c(O)c1)C(=O)O [methyldopa] | do not have protective effects against loss of memory of previously learned tasks |  |
| C[C@H](CSC(=O)c1ccccc1)C(=O)N1C[C@@H](Sc2ccccc2)C[C@H]1C(=O)O [zofenopril] | possess protective effects on memory of previously learned tasks |  |
